In patent US9169217B2, “Arylalkyl esters of 4-amino-6-(substituted phenyl)-picolinates and 6-amino-2-(substituted phenyl)-pyrimidinecarboxylates and their use as selective herbicides for crops” (Dow AgroSciences LLC, priority 2011, dated 2015):
Read-outs that look alike come from different tables or passages of the source.

Columns and labels:
Test in all cases: Postemergence foliar-applied herbicidal activity in direct seeded rice (Example 16)
Format in all cases: in vivo
[1] = tested on: Cyperus iria L. (rice flatsedge); conditions: rice cropping systems, 8.75 g ae/ha, 21 DAA, may represent multiple trials
Method in brief: (§1)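 Greenhouse plants at 2nd–3rd true leaf stage (10–17 d, ~29/26 °C, 14-h photoperiod) sprayed postemergence with ester forms in acetone–DMSO plus 1.25% crop oil concentrate at 187 L/ha. Visual injury scored 0–100% versus untreated plants after 3 weeks; GR50/GR80 derived by probit analysis.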

[2] = tested on: Cyperus difformis L. (small-flower flatsedge); conditions: post-emergence, 504 h, read-out: Visual Injury (%) CYPDI
Method in brief: as §1

[3] = tested on: Polygonum pensylvanicum L. (Pennsylvania smartweed); conditions: POLPY, probit analysis; for GR50: 50% growth reduction; for GR80: 80% growth reduction; for GR90: 90% growth reduction
Method in brief: as §1

[4] = tested on: Scirpus juncoides ROXB. (Japanese bulrush); conditions: Schoenoplectiella juncoides, post-emergence, 504 h, read-out: Visual Injury (%) SCPJU
Method in brief: as §1

[5] = tested on: Brachiaria platyphylla (GRISEB.) NASH (broadleaf signalgrass); conditions: BRAPP, probit analysis; for GR50: 50% growth reduction; for GR80: 80% growth reduction; for GR90: 90% growth reduction
Method in brief: as §1

[6] = tested on: Echinochloa crus-galli (L.) P.BEAUV. (barnyardgrass); conditions: ECHCG, probit analysis; for GR50: 50% growth reduction; for GR80: 80% growth reduction; for GR90: 90% growth reduction
Method in brief: as §1

[7] = rice cropping systems, foliar-applied, 8.75 g ae/ha, 21 DAA, may represent multiple trials

Row | Compound | Visual Injury (%) CYPIR [1] | pest or weed control at 8.75 g/ha [2] | GR50 [3] | GR80 [3] | GR90 [3] | pest or weed control at 8.75 g/ha [4] | GR50 [5] | GR80 [5] | GR90 [5] | GR50 [6] | GR80 [6] | GR90 [6] | pest or weed control at 8.75 g/ha [2, 7] | pest or weed control at 8.75 g/ha [4, 7]
1 | COC(=O)c1nc(-c2ccc(C3CC3)cc2)c(F)c(N)c1Cl [Compound B, methyl 4-amino-3-chloro-6-(4-cyclopropylphenyl)-5-fluoropicolinate] | 60% | – | – | – | – | – | – | – | – | – | – | – | – | –
2 | COc1c(Cl)ccc(-c2nc(C(=O)OCc3ccccc3)c(Cl)c(N)c2F)c1F [Compound 1, benzyl 4-amino-3-chloro-6-(4-chloro-2-fluoro-3-methoxyphenyl)-5-fluoropicolinate] | – | 100% | <8.75 g ae/ha | 19.7 g ae/ha | 46.7 g ae/ha | 93% | <4.38 g ae/ha | 9.9 g ae/ha | 26.0 g ae/ha | <4.38 g ae/ha | <4.38 g ae/ha | 6.1 g ae/ha | – | –
3 | Nc1c(F)c(-c2ccc(C3CC3)cc2)nc(C(=O)OCc2ccccc2)c1Cl [Compound 42, benzyl 4-amino-3-chloro-6-(4-cyclopropylphenyl)-5-fluoropicolinate] | 100% | – | – | – | – | – | – | – | – | – | – | – | – | –
4 | COC(=O)c1nc(-c2ccc(Cl)c(OC)c2F)c(F)c(N)c1Cl [E, methyl 4-amino-3-chloro-6-(4-chloro-2-fluoro-3-methoxyphenyl)-5-fluoropicolinate, reference compound] | – | – | 30.7 g ae/ha | >70 g ae/ha | >70 g ae/ha | – | <4.38 g ae/ha | 22.7 g ae/ha | 84.3 g ae/ha | 3.7 g ae/ha | 17.1 g ae/ha | 38.1 g ae/ha | 89% | 61%
